Reference: the supplement of paper PMC11208160

experiment: recombinant barcode read abundance after kanamycin selection (control-corrected) (log10(CPM+1)); higher = more efficient recombination; sequences stand for … in AGTGCAGAGAAAATCGGCCAGTTTTCTCTGCCTGCAGTCCGCATGCCGT…AGATTTATGCAGCGGACTGCCTTTCTCCCAAAGTGATAAACCGGACAGTATCATGGACCGGTTTTCCCGGTAATCCGTATTTGCAAGGTTGGTTTCACT; site = the 11-nt target
In short: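 In a pooled screen in E. coli, targets were paired with target-binding loops of the IS621 bridge RNA. Each oligo carried a promoter, a target, a barcode and the first 104 bridge RNA bases driven by J23119, and was Gibson-cloned into a vector holding the remaining 73 bp and a T7-inducible recombinase before co-electroporation with a donor plasmid. Duplicate platings went onto chloramphenicol/ampicillin LB agar as the control or onto chloramphenicol/ampicillin/kanamycin with 0.1 mM IPTG. Recombination efficiency is the averaged, control-corrected count per million of barcodes at recombinant junctions, given as log10(CPM+1).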
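Also: IS621 recombinase and bridge RNA in Escherichia coli cells.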

In order of rising “recombinant barcode read abundance (log10)” value:
1. TGAAGTACTTGGGTTCTAACCTGTTGCCT (site TGAATTACTAG)  0
2. TGAGCGGCTTGGGTTCTAACCTGTTGCCT (site TGAGGGGCTAG)  0.00469
3. TGAGTGGCTTGGGTTCTAACCTGTTGCCT (site TGAGGGGCTAG)  0.00884
4. TGATCTCCTTGGGTTCTAACCTGTTGCTT (site TGATCTCCTAA)  0.0107
5. TGAGTCCCTTGGGTTCTAACCTGTTGCTA (site TGGGTCCCTAA)  0.0131
6. TGATAGCCTTGGGTTCTAACCTGTTGCCT (site CGATAGCCTAG)  0.0141
7. TGAGATTCTTGGGTTCTAACCTGTTGCAT (site TGTGATCCTAT)  0.0159
8. TGAAACGCTTGGGTTCTAACCTGTTGCTT (site TGAAGCCCTAA)  0.0163
9. TGAATGTCTTGGGTTCTAACCTGTTGCCT (site TGAAGGTCTAG)  0.0166
10. TCTTGTCCTTGGGTTCTAACCTGTTGCGT (site TCTTGTCCTTC)  0.0168
11. TGACCCTCTTGGGTTCTAACCTGTTGCCT (site GGACCCTCTAG)  0.0227
12. TGAGATGCTTGGGTTCTAACCTGTTGCCT (site TGACATGCTAG)  0.026
13. TCTTGTCCTTGGGTTCTAACCTGTTGCGC (site TCTTGTCCTAC)  0.0303
14. TGACGTCCTTGGGTTCTAACCTGTTGCTT (site TGACGTCCTAC)  0.033
15. TGAGTACCTTGGGTTCTAACCTGTTGCTT (site TGAGTCCCTAA)  0.0336
16. TGCGCAACTTGGGTTCTAACCTGTTGCCT (site TGCGCAACTAG)  0.0344
17. TGAATGACTTGGGTTCTAACCTGTTGCCT (site TGGATGCCTAG)  0.0355
18. TCTTGTCCTTGGGTTCTAACCTGTTGCGT (site TCTTGTCCTCC)  0.0386
19. TGCCTATCTTGGGTTCTAACCTGTTGCCT (site TCCCTATCTAG)  0.0417
20. TGACATGCTTGGGTTCTAACCTGTTGCCT (site TGAGATGCTAG)  0.0442
21. TGATCTCCTTGGGTTCTAACCTGTTGCTT (site TGATCTCCTAT)  0.0466
22. TGAATGTCTTGGGTTCTAACCTGTTGCCT (site TGAAAGTCTAG)  0.0491
23. TGCCTATCTTGGGTTCTAACCTGTTGCCT (site TTCCTATCTAG)  0.0491
24. TGACGTCCTTGGGTTCTAACCTGTTGCAT (site TGACGTCCTAA)  0.0504
25. TGAATGTCTTGGGTTCTAACCTGTTGCCT (site TGAACGTCTAG)  0.0549
26. TCTTGTCCTTGGGTTCTAACCTGTTGCGC (site TCTTGTCCTTC)  0.0581
27. TGATAGCCTTGGGTTCTAACCTGTTGCCT (site AGATAGCCTAG)  0.063
28. TGAGCGGCTTGGGTTCTAACCTGTTGCCT (site TGAGTGGCTAG)  0.0667
29. TGCCAGCCTTGGGTTCTAACCTGTTGCCT (site TGCCAGCCTAG)  0.0668
30. TGCGAGTCTTGGGTTCTAACCTGTTGCGT (site TTCGAGTCTCC)  0.0688
31. TGACAGTCTTGGGTTCTAACCTGTTGCAG (site CACTTAACTTG)  0.0862
32. TGAAAGCCTTGGGTTCTAACCTGTTGCTT (site TGGAAGTCTAA)  0.0888
33. TGACGTCCTTGGGTTCTAACCTGTTGCAT (site TGACGTCCTAG)  0.0926
34. TCTTGTCCTTGGGTTCTAACCTGTTGCGC (site TCTTGTCCTCC)  0.093
35. TGACGTCCTTGGGTTCTAACCTGTTGCAT (site TGACGTCCTAC)  0.0943
36. TGACATGCTTGGGTTCTAACCTGTTGCCT (site TGAAATGCTAG)  0.108
37. TGAGTGGCTTGGGTTCTAACCTGTTGCCT (site TGAGCGGCTAG)  0.108
38. TGCCAGCCTTGGGTTCTAACCTGTTGCCT (site TGCCAGACTAT)  0.114
39. TGACGTCCTTGGGTTCTAACCTGTTGCTT (site TGACGTCCTAG)  0.122
40. TGAGATGCTTGGGTTCTAACCTGTTGCCT (site TGATATGCTAG)  0.124
41. TGACACACTTGGGTTCTAACCTGTTGCTG (site TGAGACACTCA)  0.127
42. TGAGTGGCTTGGGTTCTAACCTGTTGCCT (site TGAGAGGCTAG)  0.129
43. TGAGCGGCTTGGGTTCTAACCTGTTGCCT (site TGAGAGGCTAG)  0.143
44. TGAGTACCTTGGGTTCTAACCTGTTGCTT (site TGAGTTCCTAA)  0.144
45. TGAGTCCCTTGGGTTCTAACCTGTTGCAG (site AAGTGGTCTTA)  0.149
46. TGATAGCCTTGGGTTCTAACCTGTTGCCT (site GGATAGCCTAG)  0.159
47. TGAAGTACTTGGGTTCTAACCTGTTGCCT (site TGAACTACTAG)  0.169
48. TCTTGTCCTTGGGTTCTAACCTGTTGCGT (site TCTTGTCCTGC)  0.172
49. TGACATGCTTGGGTTCTAACCTGTTGCCT (site TGATATGCTAG)  0.172
50. TGAAGCCCTTGGGTTCTAACCTGTTGCTT (site TGAAACGCTAA)  0.179
51. TGATCTCCTTGGGTTCTAACCTGTTGCAT (site TGATCTCCTAA)  0.186
52. TGAGATGCTTGGGTTCTAACCTGTTGCCT (site TGAAATGCTAG)  0.199
53. TGAAAGCCTTGGGTTCTAACCTGTTGCTT (site TGAAAGCCTAA)  0.215
54. TGCCTATCTTGGGTTCTAACCTGTTGCCT (site TACCTATCTAG)  0.234
55. TGATATTCTTGGGTTCTAACCTGTTGCCT (site TGATATTCTAG)  0.245
56. TGACGTCCTTGGGTTCTAACCTGTTGCTT (site TGACGTCCTAT)  0.251
57. TGCGCAACTTGGGTTCTAACCTGTTGCCT (site TGCGCCACTAG)  0.256
58. TGAAGTACTTGGGTTCTAACCTGTTGCCT (site TGAAGTACTAG)  0.257
59. TGATCTCCTTGGGTTCTAACCTGTTGCAT (site TGATCTCCTAT)  0.28
60. TGCCTATCTTGGGTTCTAACCTGTTGCCT (site TGCCTATCTAG)  0.28
61. TGACGTCCTTGGGTTCTAACCTGTTGCTT (site TGACGTCCTAA)  0.293
62. TGAAGCCCTTGGGTTCTAACCTGTTGCTT (site TGAAGCCCTAA)  0.321
63. TGAAGTACTTGGGTTCTAACCTGTTGCCT (site TGAAATACTAG)  0.35
64. TCTTGTCCTTGGGTTCTAACCTGTTGCGC (site TCTTGTCCTGC)  0.385
65. TGAGCGGCTTGGGTTCTAACCTGTTGCCT (site TGAGCGGCTAG)  0.438
66. TGATATTCTTGGGTTCTAACCTGTTGCCT (site ACCAGCCCTCA)  0.448
67. TGACCCTCTTGGGTTCTAACCTGTTGCCT (site CGACCCTCTAG)  0.465
68. TGAATGACTTGGGTTCTAACCTGTTGCCT (site TGAATGACTAG)  0.544
69. TCTTGTCCTTGGGTTCTAACCTGTTGCGT (site TCTTGTCCTAC)  0.682
70. TGACGTCCTTGGGTTCTAACCTGTTGCAT (site TGACGTCCTAT)  0.695
71. TGACCCTCTTGGGTTCTAACCTGTTGCCT (site AGACCCTCTAG)  0.703
72. TGAGTGGCTTGGGTTCTAACCTGTTGCCT (site TGAGTGGCTAG)  0.749
73. TGAGTACCTTGGGTTCTAACCTGTTGCTT (site TGAGTGCCTAA)  0.856
74. TGATAGCCTTGGGTTCTAACCTGTTGCCT (site TGATAGCCTAG)  0.901
75. TGAAACGCTTGGGTTCTAACCTGTTGCTT (site TGAAACGCTAA)  1.2
76. TGAATGTCTTGGGTTCTAACCTGTTGCCT (site TGAATGTCTAG)  1.23
77. TGACATGCTTGGGTTCTAACCTGTTGCCT (site TGACATGCTAG)  1.37
78. TGAGTACCTTGGGTTCTAACCTGTTGCTT (site TGAGTACCTAA)  1.39
79. TGACAGTCTTGGGTTCTAACCTGTTGCAG (site TGACAGTCTCT)  1.42
80. TGAGATTCTTGGGTTCTAACCTGTTGCAT (site TGAGATTCTAT)  1.55
81. TGAGATGCTTGGGTTCTAACCTGTTGCCT (site TGAGATGCTAG)  1.72
82. TGACACACTTGGGTTCTAACCTGTTGCTG (site TGACACACTCA)  2.22
83. TGAGTCCCTTGGGTTCTAACCTGTTGCTA (site TGAGTCCCTTA)  2.27
84. TGACCCTCTTGGGTTCTAACCTGTTGCCT (site TGACCCTCTAG)  2.39
85. TGAGTCCCTTGGGTTCTAACCTGTTGCAG (site TGAGTCCCTCT)  2.79
86. TGCGAGTCTTGGGTTCTAACCTGTTGCGT (site TGCGAGTCTAC)  2.87
